Columns and labels:
rat cathepsin B = rat cathepsin B (Rattus norvegicus, UniProt P00787); test: In vitro assay for inhibition of cathepsin B; assay type: biochemical; settings: r rat cathepsin B, substrate N-CBZ-Phe-Arg-AMC, pH 5.1, 10 min incubation at room temperature
Protocol: In Vitro Assay Procedure for Cathepsin B
The compounds of formula I were tested for inhibition of cathepsin B using the known method (A. J. Barret et al., Biochem. J. 1982, 201, 189-198). To a 170 μl of enzyme-buffer mixture (enzyme: r rat cathepsin B, diluted to give approximate 10 F units/min, buffer: 56 mM sodium acetate, 1.124 mM EDTA, 10 mM DTT, pH 5.1) a 10 μL of inhibitor (dissolved in DMSO) was added. After 10 min of incubation at room temperature, a 20 μl of 5 mM substrate (N-CBZ-Phe-Arg-AMC, dissolved in DMSO) was added to initiate reaction. Reading is followed up for 10 min at the fluoroscan reader (excitation at 380 nm emission at 460 nm).
(§1) A plot of percentage of inhibition vs inhibitor concentration is obtained, and IC50 is determined using a linear regression calculations (concentration of inhibitor which will give 50% inhibition).

rat cathepsin L = rat cathepsin L (Rattus norvegicus, UniProt P07154); test: In vitro assay for inhibition of cathepsin L; assay type: biochemical; settings: r rat cathepsin L, substrate N-CBZ-Phe-Arg-AMC, pH 5.0, 10 min incubation at room temperature
Protocol: In Vitro Assay Procedure for Cathepsin L
To a 170 μl of enzyme-buffer mixture (enzyme: r rat cathepsin L, diluted to give approximate 15 F units/min, buffer: 58.8 mM sodium citrate, 1.18 mM EDTA, 235 mM sodium chloride, 5 mM […], pH 5.0) a 10 μL of inhibitor (dissolved in DMSO) was added. After 10 min of incubation at room temperature, a 20 μl of 1 mM substrate (N-CBZ-Phe-Arg-AMC, dissolved in DMSO) was added to initiate reaction. Reading is followed up for 10 min at the fluoroscan reader (excitation at 380 nm emission at 460 nm).
as §1

cathepsin K = target: T1, cathepsin K (Homo sapiens, UniProt P43235); test: In vitro assay for inhibition of cathepsin K; assay type: biochemical; settings: r cathepsin K, substrate N-CBZ-Phe-Arg-AMC, pH 5.5, 10 min incubation at room temperature
T1 sequence (P43235 115-329): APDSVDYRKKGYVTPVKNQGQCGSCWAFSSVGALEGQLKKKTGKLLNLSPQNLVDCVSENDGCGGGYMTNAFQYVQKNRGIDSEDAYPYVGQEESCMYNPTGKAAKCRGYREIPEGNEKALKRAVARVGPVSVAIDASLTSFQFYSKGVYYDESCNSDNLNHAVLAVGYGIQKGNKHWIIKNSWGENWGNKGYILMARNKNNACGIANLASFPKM
Protocol: In Vitro Assay Procedure for Cathepsin K
(§2) To a 170 μl of enzyme-buffer mixture (enzyme: r cathepsin K, diluted to give approximate 30 F units/min, buffer: 100 mM sodium acetate, 5 mM EDTA, 20 mM L-cysteine, 0.01% Brij, pH 5.5) a 10 μL of inhibitor (dissolved in DMSO) was added. After 10 min of incubation at room temperature, a 20 μl of 2.7 mM substrate (N-CBZ-Phe-Arg-AMC, dissolved in DMSO) was added to initiate reaction. Reading is followed up for 10 min at the fluoroscan II plate reader (excitation at 380 nm emission at 460 nm).
as §1

cathepsin S = cathepsin S (Homo sapiens, UniProt P25774); test: In vitro assay for inhibition of cathepsin S; assay type: biochemical; settings: r cathepsin S, substrate N-CBZ-Val-Val-Arg-AMC, pH 6.5, 10 min incubation at room temperature
Protocol: In Vitro Assay Procedure for Cathepsin S
as §2, with “S,” for “K,”, “phosphate, 1 mM EDTA,” for “acetate,”, “DTT,” for “EDTA, 20 mM L-cysteine,”, “6.5)” for “5.5)”, “1.2” for “2.7”, “(N-CBZ-Val-Val-Arg-AMC,” for “(N-CBZ-Phe-Arg-AMC,”
as §1

rat cathepsin L, sequence (P07154 114-334): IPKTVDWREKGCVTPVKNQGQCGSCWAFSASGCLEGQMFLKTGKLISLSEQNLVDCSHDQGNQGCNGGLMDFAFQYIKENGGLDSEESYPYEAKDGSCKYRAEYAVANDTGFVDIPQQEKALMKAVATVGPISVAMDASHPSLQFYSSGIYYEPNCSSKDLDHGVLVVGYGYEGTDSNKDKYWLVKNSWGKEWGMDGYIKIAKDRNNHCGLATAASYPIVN
cathepsin S, sequence (P25774 115-331, species assumed): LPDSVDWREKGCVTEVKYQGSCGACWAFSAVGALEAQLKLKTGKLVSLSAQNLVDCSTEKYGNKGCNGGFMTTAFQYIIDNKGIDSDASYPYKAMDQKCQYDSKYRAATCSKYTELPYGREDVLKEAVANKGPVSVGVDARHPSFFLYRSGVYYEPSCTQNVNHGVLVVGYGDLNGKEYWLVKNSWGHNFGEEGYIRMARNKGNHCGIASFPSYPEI
rat cathepsin B, sequence (P00787 80-333): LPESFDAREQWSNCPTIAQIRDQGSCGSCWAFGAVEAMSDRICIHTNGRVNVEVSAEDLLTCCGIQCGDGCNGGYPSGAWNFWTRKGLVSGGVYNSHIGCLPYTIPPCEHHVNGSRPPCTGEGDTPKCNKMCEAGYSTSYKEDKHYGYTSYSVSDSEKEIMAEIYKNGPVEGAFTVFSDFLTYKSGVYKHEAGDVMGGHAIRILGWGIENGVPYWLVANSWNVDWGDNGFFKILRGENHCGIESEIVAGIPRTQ

SMILES | IC50 (rat cathepsin B) [µM] | IC50 (rat cathepsin L) [µM] | IC50 (cathepsin K) [µM] | IC50 (cathepsin S) [µM] | melting point [°C]
CC(=O)N/C=C(/NC(=O)[C@H](CC1CCCCC1)NC(=O)OCc1ccccc1)C(N)=O [Example 19a, (2E)-(2S-2-Benzyloxycarbonylamino-2-cyclohexymethyl-acetamido)-3-acetamido-acrylamide] | > 58 | > 58 | > 58 | 1.86 | 140 to 142
NC(=O)C(NC(=O)[C@H](Cc1ccccc1)NC(=O)CCc1ccccc1)C(O)O (stereo partly drawn) [Example 14, 2-[2S-2-(3-Phenylpropionoylamino)-2-benzyl-acetamido]-3,3-dihydroxy-propionamide] | 0.98 | 0.004 | 1.13 | 0.004 | 105 to 110
CC(C)C[C@H](NC(=O)OCc1ccccc1)C(=O)NC(C(N)=O)C(O)O (stereo partly drawn) [Example 11, 2-(2S-2-Benzyloxycarbonylamino-2-isopropylmethyl-acetamido)-3,3-dihydroxy-propionamide] | 2.4 | 0.11 | 0.014 | 0.015 | 86 to 90
CC(C)C[C@H](NC(=O)OCc1ccccc1)C(=O)N/C(=C\N1CCC(NC(=O)OC(C)(C)C)C1)C(N)=O (stereo partly drawn) [Example 18, 2-(2S-2-Benzyloxycarbonylamino-2-isopropylmethyl-acetamido)-3-(3-tert-butoxycarbonylamino-pyrrolidino)-acrylamide] | 1.9 | 0.12 | 0.0096 | 0.039 | 140 to 142
CC(C)C[C@H](NC(=O)OCc1ccccc1)C(=O)NC(=CNc1ccccc1)C(N)=O [Example 8, 2-(2S-2-Benzyloxycarbonylamino-2-isoproplmethyl-acetamido)-3-phenylamino-acrylamide] | 37.1 | 2.36 | 0.33 | 6.9 | 199 to 200
NC=C(NC(=O)[C@H](CC1CCCCC1)NC(=O)OCc1ccccc1)C(N)=O [Example 2, 2-(2S-2-Benzyloxycarbonylamino-2-cyclohexylmethyl-acetamido)-3-amino-acrylamide] | 1.17 | 0.072 | 1.78 | 0.026 | 80 to 85
CC(C)C[C@H](NC(=O)OCc1ccccc1)C(=O)NC(=CN)C(N)=O [Example 1, 2-(2S-2-Benzyloxycarbonylamino-2-isopropylmethyl-acetamido)-3-amino-acrylamide] | 4.35 | 0.094 | 0.011 | 0.069 | 80 to 90
CC(C)C[C@H](NC(=O)OCc1ccccc1)C(=O)NC(=CN1CCOCC1)C(N)=O [Example 6, 2-(2S-2-Benzyloxycarbonylamino-2-isopropylmethyl-acetamido)-3-(morpholin-4-yl)-acrylamide] | 0.37 | 0.075 | 0.003 | 0.05 | 120 to 130

Results, then the molecule that gave them:

IC50 (rat cathepsin B) [µM] | IC50 (rat cathepsin L) [µM] | IC50 (cathepsin K) [µM] | IC50 (cathepsin S) [µM] | melting point [°C] | SMILES
1.9 | 0.23 | 0.019 | 0.18 | 93.5 to 95 | CC(C)C[C@H](NC(=O)OCc1ccccc1)C(=O)N/C(=C\N1CCN(C)CC1)C(N)=O [Example 17, 2-(2S-2-Benzyloxycarbonylamino-2-isopropylmethyl-acetamido)-3-(4-methylpiperazino)-acrylamide]
2.63 | 0.015 | 1.2 | 0.0087 | 75 to 80 | NC=C(NC(=O)[C@H](Cc1ccccc1)NC(=O)CCc1ccccc1)C(N)=O [Example 4, 2-[2S-2-(3-Phenylpropionoyl)amino-2-benzyl-acetamido]-3-amino-acrylamide]
0.89 | 0.062 | 0.014 | 0.05 | 99 to 103 | CC(C)C[C@H](NC(=O)OCc1ccccc1)C(=O)N/C(=C\N1CCCCC1)C(N)=O [Example 9, 2-(2S-2-Benzyloxycarbonylamino-2-isopropylmethyl-acetamido)-3-piperidino-acrylamide]
2.28 | 0.064 | 0.0031 | 0.061 | 115 to 120 | CC(C)C[C@H](NC(=O)OCc1ccccc1)C(=O)NC(=CNCc1ccccc1)C(N)=O [Example 5, 2-(2S-2-Benzyloxycarbonylamino-2-isopropylmethyl-acetamido)-3-benzylamino-acrylamide]
1.96 | 0.23 | 0.012 | 0.18 | 89 to 92 | CC(C)C[C@H](NC(=O)OCc1ccccc1)C(=O)NC(=CNCCO)C(N)=O [Example 7, 2-(2S-2-Benzyloxycarbonylamnino-2-isopropylmnethyl-acetamido)-3-(2-hydroxyethylamnino)-acrylamide]
9.5 | 0.17 | 0.018 | 0.075 | 105 to 115 | CC(C)C[C@H](NC(=O)OCc1ccccc1)C(=O)N/C(=C/O)C(N)=O [Example 15, 2-(2S-2-Benzyloxycarbonylamino-2-isopropylmethyl-acetamido)-3-hydroxy-acrylamide]

From patent publication US6635621B1, “Cysteine protease inhibitors” (Naeja Pharmaceutical Inc., priority 1999, dated 2003)
